{
  "source": "patent US8362253B2",
  "about": "“Solid forms of N-[2,4-bis(1,1-dimethylethyl)-5-hydroxyphenyl]-1,4-dihydro-4-oxoquinoline-3-carboxamide” (Vertex Pharmaceutical Incorporated, priority 2007, dated 2013)",
  "origin": "cited, not measured here",
  "system": "cystic fibrosis transmembrane conductance regulator (CFTR) protein",
  "conditions": "cells from patients with CF, CFTR present on the cell surface; background statement",
  "data": [
    {"smiles": "CC(C)(C)c1cc(C(C)(C)C)c(NC(=O)c2c[nH]c3ccccc3c2=O)cc1O", "note": "[Compound 1, N-[2,4-bis(1,1-dimethylethyl)-5-hydroxyphenyl]-1,4-dihydro-4-oxoquinoline-3-carboxamide]", "values": [
      {"measurement": "Function of defective CFTR channels", "value": "restored the function of defective CFTR channels"}
    ]}
  ]
}
